Like-named read-outs stand apart in the source and are kept apart here.
Experiments:
[1] = Experimental: A formulation comprising imazapic, benzyl alcohol and Tween-20 as detailed in Table 1 was prepared by (i) adding benzyl alcohol to a reactor; adding Tween-20 while mixing; (iii) gradually adding imazapic and continue mixing until the solution obtained is clear; (iv) discharging said solution from the reactor; and (v) filtering the solution using a 5 μm filter.
[2] = 20° C., cited from earlier work
[3] = 20° C.; cited from earlier work

SMILES: Cc1cnc(C2=NC(=O)C(C)(C(C)C)N2)c(C(=O)O)c1 (stereo not drawn) [imazapic]
- solubility in organic solvents suitable for agricultural applications [1]: dissolve

SMILES: CC(C)N(C)S(=O)(=O)NC(=O)c1cc(-n2c(=O)cc(C(F)(F)F)n(C)c2=O)c(F)cc1Cl [saflufenacil, 2-chloro-5-[3,6-dihydro-3-methyl-2,6-dioxo-4-(trifluoromethyl)-1-(2H)pyrimidinyl]-4-fluoro-N-[[methyl(1-methylethyl)amino]sulfonyl]benzamide]
- solubility in water ([2]; pH 5): 0.0025 g/100 mL
- solubility in water ([2]; pH 7): 0.21 g/100 mL
- solubility in isopropyl alcohol [3]: 0.25 g/100 mL
- solubility in methanol [3]: 2.98 g/100 mL
- solubility in octanol [3]: < 0.01 g/100 mL

From patent US20240147998A1, “HERBICIDAL COMPOSITIONS COMPRISING IMIDAZOLINONE-BASED ACETOLACTATE SYNTHASE INHIBITORS AND USES THEREOF” (Adama Agan Ltd., priority 2021, published 2024)
